The test system of experiment [1] is rabbit blood platelets (platelet rich plasma), ADP-induced aggregation. The experiment in a line: inhibition of platelet aggregation in rabbit platelet rich plasma (in vitro), induced by ADP. It counts as cell-based. The note with it: rabbit PRP, ADP 10^-5 M; for inhibition at 10 µg/mL: 10 μg/ml; for inhibition at 30 µg/mL: 30 μg/ml. As to the method:
(§1) In this example, the inhibition of platelet aggregation in rabbit platelet rich plasma (in vitro) is tested.
(§2) In this test, 9 vol. of blood is sampled from the carotid artery of rabbits (2 to 2.5 Kg) and placed in a silicon-coated flask containing 1 vol. of 3.8% sodium citrate. The thus obtained blood is centrifuged at 1,000 rpm for 15 minutes to obtain platelet rich plasma (referred to as "PRP" hereinafter). The aggregation of blood platelets is observed using an aggregometer (made by Bryston Co.) and the degree of aggregation after the addition of aggregation promoting substances is measured by nephelometry, i.e., through increase in light transmission.
(§3) The PRP (0.9 ml) is placed in a silicon-coated cuvett of the aggregometer. Then, 0.05 ml of physiological saline solution containing various concentrations of test reagents or control reagents is added and the mixture is allowed to stand for one minute. Compounds promoting aggregation are then added and the absorbancy of the solution is measured and the percent inhibition of aggregation is calculated according to the following equation: [formula] C: Transmittancy showing the maximum percent aggregation by physiological saline solution
(§4) D: Transmittancy showing the maximum percent aggregation by sample
(§5) Test for the inhibition of platelet aggregation induced by ADP, collagen and thrombin.

The subject of experiment [2] is rabbit blood platelets (platelet rich plasma), collagen-induced aggregation. Nature of the experiment: inhibition of platelet aggregation in rabbit platelet rich plasma (in vitro), induced by collagen. In kind it is cell-based. To be noted: rabbit PRP; for inhibition at 10 µg/mL: 10 μg/ml; for inhibition at 30 µg/mL: 30 μg/ml; for inhibition at 3 µg/mL: 3 μg/ml. As to the method:
as §1, §2, §3, §4, §5

[3] abbreviates: Oryctolagus cuniculus, Platelet, read-out: percentage of inhibition, ADP.
Setting [4] is: Oryctolagus cuniculus, Platelet, 100 μg/ml, read-out: percentage of inhibition, ADP.
Setting [5] is: Oryctolagus cuniculus, Platelet, read-out: percentage of inhibition, collagen.
[6] abbreviates: Oryctolagus cuniculus, Platelet, 100 μg/ml, read-out: percentage of inhibition, collagen.

Regarding `O=C(Nc1cccc(Cl)c1)c1ccccc1SSc1ccccc1C(=O)Nc1cccc(Cl)c1` [Compound XI, 2,2'-dithiobis(N-m-chlorophenylbenzamide)], the inhibition at 10 µg/mL in experiment [1] (setting [3]) and in experiment [2] (setting [5]) was 0% each time. Besides, the inhibition at 30 µg/mL in experiment [1] (setting [3]) was determined as 29%; in experiment [2] (setting [5]), 99%. For the same molecule, the inhibition at 100 µg/mL was determined as 96% in experiment [1] (setting [4]) and 100% in experiment [2] (setting [6]).

Regarding “2,2'-dithiobis(N-naphthylbenzamide) [Compound XXXIX]”, in experiment [1] (100 μg/ml), the “percentage of inhibition, ADP” value is reported as 25%. The “percentage of inhibition, collagen” value in experiment [2] (100 μg/ml) is 12%.

On to `CC(CCc1ccccc1)NC(=O)c1ccccc1SSc1ccccc1C(=O)NC(C)CCc1ccccc1` (stereo not drawn) [Compound XIV, 2,2'-dithiobis[N-(1-methyl-3-phenylpropyl)]benzamide], for which the inhibition at 30 µg/mL was determined as 28% in experiment [1] (setting [3]) and 24% in experiment [2] (setting [5]).

On to `O=C(NCCCO)c1ccccc1SSc1ccccc1C(=O)NCCCO` [Compound XVI, 2,2'-dithiobis(N-3-hydroxypropylbenzamide)], for which the inhibition at 3 µg/mL was 42% in experiment [1] (Oryctolagus cuniculus, Platelet, 3 μg/ml, read-out: percentage of inhibition, ADP) and 50% in experiment [2] (setting [5]). The results for the inhibition at 10 µg/mL in experiment [1] (setting [3]) and in experiment [2] (setting [5]) were 64% and 78%, respectively. Also, the values for the inhibition at 100 µg/mL in experiment [1] (setting [4]) and in experiment [2] (setting [6]) were 88% and 100%, respectively. Further, the inhibition at 1 µg/mL in experiment [2] (Oryctolagus cuniculus, Platelet, 1 μg/ml, read-out: percentage of inhibition, collagen) was found to be 8%.

For `CCCCCCCCCCCCCCCCCCNC(=O)c1ccccc1SSc1ccccc1C(=O)NCCCCCCCCCCCCCCCCCC` [Compound VII, 2,2'-dithiobis(N-octadecylbenzamide)], the inhibition at 30 µg/mL in experiment [1] (setting [3]) and in experiment [2] (setting [5]) was 0% in each case. The inhibition at 100 µg/mL came to 10% in experiment [1] (setting [4]) and 38% in experiment [2] (setting [6]).

As for `CCCCCCCCCCCCCCCC(=O)OCCNC(=O)c1ccccc1SSc1ccccc1C(=O)NCCOC(=O)CCCCCCCCCCCCCCC` [Compound XX, 2,2'-dithiobis(N-2-hexadecanoyloxyethylbenzamide)], the inhibition at 30 µg/mL in experiment [1] (setting [3]) and in experiment [2] (setting [5]) was 0% each time. Besides, the inhibition at 100 µg/mL in experiment [1] (setting [4]) was determined as 23%; in experiment [2] (setting [6]) it was 33%.

On to `CCCCCCCCCCCCNC(=O)c1ccccc1SSc1ccccc1C(=O)NCCCCCCCCCCCC` [Compound VI, 2,2'-dithiobis(N-dodecylbenzamide)], for which the inhibition at 30 µg/mL in experiment [1] (setting [3]) and in experiment [2] (setting [5]) was 0% each time. Moreover, the inhibition at 100 µg/mL worked out at 35% in experiment [1] (setting [4]) and 89% in experiment [2] (setting [6]).

Consider `CCCCCCCCCCCCCCCC(=O)OC(C)CNC(=O)c1ccccc1SSc1ccccc1C(=O)NCC(C)OC(=O)CCCCCCCCCCCCCCC` (stereo not drawn) [Compound XXIV, 2,2'-dithiobis(N-2-hexadecanoyloxypropylbenzamide)], for which the inhibition at 30 µg/mL in experiment [1] (setting [3]) worked out at 0%; in experiment [2] (setting [5]) it was 19%. In addition, the values for the inhibition at 100 µg/mL in experiment [1] (setting [4]) and in experiment [2] (setting [6]) were 59% and 86%, respectively.

For `CCOCCCNC(=O)c1ccccc1SSc1ccccc1C(=O)NCCCOCC` [Compound XXXV, 2,2'-dithiobis(N-3-ethyloxypropylbenzamide)], in experiment [1] (setting [4]), the inhibition at 100 µg/mL amounted to 35%. In experiment [2] (setting [5]), the inhibition at 10 µg/mL came out at 15% and the inhibition at 30 µg/mL stood at 31%. For the same molecule, in experiment [2] (setting [6]), the inhibition at 100 µg/mL is 100%.

Consider `O=C(NCCCCO)c1ccccc1SSc1ccccc1C(=O)NCCCCO` [Compound XVII, 2,2'-dithiobis(N-4-hydroxybutylbenzamide)], for which the inhibition at 30 µg/mL in experiment [1] (setting [3]) was found to be 45%. Besides, the inhibition at 100 µg/mL in experiment [1] (setting [4]) was found to be 100%. Moreover, in experiment [2] (setting [5]), the inhibition at 3 µg/mL came to 0%, the inhibition at 10 µg/mL is 97% and the inhibition at 30 µg/mL amounted to 100%. In addition, in experiment [2] (setting [6]), the inhibition at 100 µg/mL was found to be 100%.

For `O=C(NCN1CCCCC1)c1ccccc1SSc1ccccc1C(=O)NCN1CCCCC1` [Compound XXXVII, 2,2'-dithiobis(N-piperidinylmethylbenzamide)], the inhibition at 100 µg/mL in experiment [1] (setting [4]) is 20%.

For `Nc1ncnc2c1ncn2[C@@H]1O[C@H](CO)[C@@H](O)[C@H]1O` [adenosine, reference compound], the inhibition at 100 µg/mL in experiment [1] (setting [4]) worked out at 39%.

The record behind these values is patent US4705805A, “Antithrombotic agent” (priority 1978, dated 1987).
